Results reported in patent EP3696177A1, “HETEROCYCLIC COMPOUNDS FOR THE CONTROL OF INVERTEBRATE PESTS” (BASF SE, priority 2019, dated 2020).
Where two headings read alike, the source gives them in different places.

Experiments:
Assay type in all cases: in vivo
[1] = test system: Nezara viridula; assay: Green soldier stink bug (Nezara viridula) soybean pod spray test; details: 120 h, late 3rd instar N. viridula, after 5 days, read-out: mortality in comparison with untreated controls
Procedure: The active compound is dissolved at the desired concentration in a mixture of 1:1 (vol:vol) distilled water: aceteone. Surfactant (Kinetic) is added at a rate of 0.01% (vol/vol).The test solution is prepared at the day of use.
Soybean pods are placed in 90 x 50 mm glass Petri dishes lined with moistened filter paper and inoculated with ten late 3rd instar N. viridula. Using a hand atomizer, an approximately 2 ml solution is sprayed into each Petri dish. Treated set-up is kept at about 25-26°C and relative humidity of about 65-70%. Percent mortality is recorded after 5 days.

[2] = test system: Heliothis virescens; assay: Tobacco budworm (Heliothis virescens) insect diet microtiter plate test; details: 120 h, read-out: mortality in comparison with untreated controls (egg and larval mortality)
[3] = test system: Myzus persicae; assay: Green peach aphid (Myzus persicae) artificial diet/membrane systemic test; details: 72 h, read-out: mortality in comparison with untreated controls
[4] = test system: Plutella xylostella; assay: Diamond back moth (Plutella xylostella) cabbage leaf disc dip test; details: foliar, 72 h, read-out: mortality in comparison with untreated controls
[5] = test system: Aphis craccivora; assay: Cowpea aphid (Aphis craccivora) spray test on potted cowpea plants; details: aphids of various stages, after 72 hours, read-out: mortality in comparison with untreated controls
Procedure: The active compound is dissolved at the desired concentration in a mixture of 1:1 (vol: vol) distilled water: acetone. Surfactant (Kinetic) is added at a rate of 0.01% (vol/vol). The test solution is prepared at the day of use.
Potted cowpea plants are colonized with approximately 30 - 50 aphids of various stages by man-ually transferring aphid-infested leaf clippings 24 hours before application. Plants are sprayed with the test solutions using a DeVilbiss® hand atomizer at 20- 30 psi (≈ 1.38 to 2.07 bar) after the pest population has been checked. Treated plants are maintained on light carts at about 25- 26°C. Estimate percent mortality is assessed after 72 hours.

[6] = test system: Aedes aegypti; assay: whole plant or invertebrate; details: 48 h, A. aegypti larvae, incubated 2 days, read-out: mortality in comparison with untreated controls (larval mortality)
[7] = test system: Nephotettix virescens; assay: Rice green leafhopper (Nephotettix virescens) spray test on rice seedlings; details: adults, after 72 hours, read-out: mortality in comparison with untreated controls
Procedure: Four to five-week old rice seedlings with cut upper leaf portion are cleaned and washed 24 hours before spraying. The active compounds are formulated in 1:1 acetone:water (vol:vol), and 0.01% vol/vol surfactant (Kinetic) is added. Potted rice seedlings are sprayed with 5-6 ml test solution, air dried, covered with Mylar cages and inoculated with 10 adults. Treated rice plants are kept at about 28-29°C and relative humidity of about 50-60%. Percent mortality is recorded after 72 hours.

[8] = test system: Anthonomus grandis; assay: Boll weevil (Anthonomus grandis) insect diet microtiter plate test; details: 120 h, read-out: mortality in comparison with untreated controls (egg and larval mortality)
[9] = test system: Megoura viciae; assay: Vetch aphid (Megoura viciae) broad bean leaf disk test; details: foliar, 120 h, read-out: mortality in comparison with untreated controls
[10] = test system: dichromothrips corbetti; assay: Orchid thrips floral-immersion test; details: 72 h, read-out: mortality in comparison with untreated controls
[11] = test system: Tetranychus kanzawai; assay: Red spider mite (Tetranychus kanzawai) spray test on cowpea beans; details: 72 h, read-out: mortality in comparison with untreated controls
[12] = test system: Caenorhabditis elegans; assay: Caenorhabditis elegans liquid diet microtiter plate test; details: 96 h, read-out: mortality in comparison with untreated controls (nematode motility (mortality))

CN1COC(CNC(=O)c2ccc(C3=NOC(c4cc(Cl)c(F)c(Cl)c4)(C(F)(F)F)C3)cc2Cl)C1=O (stereo not drawn) [Compound I-3-5, 2-chloro-4-[5-(3,5-dichloro-4-fluoro-phenyl)-5-(trifluoromethyl)-4H-isoxazol-3-yl]-N-[(3-methyl-4-oxo-oxazolidin-5-yl)methyl]benzamide]
> 75%: mortality at 300 ppm [1] | mortality at 2500 ppm [2] | mortality at 2500 ppm [3] | mortality at 300 ppm [4] | mortality at 300 ppm [5] | mortality at 2500 ppm [6] | mortality at 300 ppm [7] | mortality at 2500 ppm [8] | mortality at 2500 ppm [9] | mortality at 300 ppm [10] | mortality at 300 ppm [11] | mortality at 2500 ppm [12]

CCN1C(=O)SC(NC(=O)c2ccc(C3=NOC(c4cc(Cl)c(F)c(Cl)c4)(C(F)(F)F)C3)cc2Cl)C1=O (stereo not drawn) [Compound I-1-7]
> 75%: mortality at 300 ppm [1] | mortality at 2500 ppm [2] | mortality at 2500 ppm [3] | mortality at 300 ppm [4] | mortality at 300 ppm [5] | mortality at 2500 ppm [6] | mortality at 300 ppm [7] | mortality at 2500 ppm [8] | mortality at 2500 ppm [9] | mortality at 300 ppm [10] | mortality at 300 ppm ([11]; topical) | mortality at 2500 ppm [12]

Cc1cc(C2=NOC(c3cc(Cl)c(F)c(Cl)c3)(C(F)(F)F)C2)ccc1C(=O)NC1SC(=O)N(C(C)C)C1=O (stereo not drawn) [Compound I-1-11]
> 75%: mortality at 300 ppm [1] | mortality at 2500 ppm [2] | mortality at 2500 ppm [3] | mortality at 300 ppm [4] | mortality at 300 ppm [5] | mortality at 2500 ppm [6] | mortality at 300 ppm [7] | mortality at 2500 ppm [8] | mortality at 2500 ppm [9] | mortality at 300 ppm [10] | mortality at 300 ppm ([11]; topical) | mortality at 2500 ppm [12]

CCN1C(=O)SC(NC(=O)c2ccc(C3=NOC(c4cc(Cl)cc(Cl)c4)(C(F)(F)F)C3)cc2Cl)C1=O (stereo not drawn) [Compound I-1-2]
> 75%: mortality at 300 ppm [1] | mortality at 2500 ppm [2] | mortality at 2500 ppm [3] | mortality at 300 ppm [4] | mortality at 300 ppm [5] | mortality at 2500 ppm [6] | mortality at 300 ppm [7] | mortality at 2500 ppm [8] | mortality at 2500 ppm [9] | mortality at 300 ppm [10] | mortality at 300 ppm ([11]; topical) | mortality at 2500 ppm [12]
